Laboratory results as given in patent US6335443B1, “Chemical synthesis of exochelins” (Keystone Biomedical, Inc., priority 1998, dated 2002).
“And” between values parts separate entries of the source, which are not always exact repeats. Equal values may be shown once. Values belong to the substance of their own block, whether it stands above or below them.

Tests used:
ferri-Exochelin 758SM [1] = experiment: Capacity to remove iron from a different Exochelin species (Ferri-Exochelin 758SM); format: binding; settings: for % Iron-Saturation 0 h / % of Calculated Iron-Saturation at Equilibrium 0 h / % of Calculated Iron-Saturation at Equilibrium 1 h / % Iron-Saturation 1 h: Table 1; for % Iron-Saturation 0 h / % Iron-Saturation 0 hour / % Iron-Saturation 1 hour / % Iron-Saturation 1 h: mixed with ferri-Exochelin 758SM
Experimental: C. Capacity to Remove Iron from a Different Exochelin Species. To assess the affinity of the synthetic desferri-Exochelin 772SM(R) for iron, its capacity to remove iron from a different Exochelin species, ferri-Exochelin 758SM, was evaluated. The capacity of synthetic and native desferri-Exochelin 772SM(R) to remove iron from ferri-Exochelin 758SM was also evaluated and compared. Either native or synthetic desferri-Exochelin 772SM(R) were independently mixed with ferri-Exochelin 758SM. The amount of iron acquired in 1 hour by the desferri-Exochelins was assayed by subjecting the Exochelin to reverse-phase HPLC on a phenyl column, as described above, and the area under the 450 nm absorbance peak was measured. The amount of iron-Exochelin was then calculated using a conversion factor derived from assaying known amounts of ferri-Exochelin 772SM(R).
C. Capacity to Remove Iron from a Different Exochelin Species. To assess the affinity of the synthetic desferri-Exochelin 772SM(S) for iron, its capacity to remove iron from a different exochelin species, ferri-Exochelin 758SM was evaluated. The capacity of synthetic desferri-Exochelin 772SM(S) and native desferri-Exochelin 772SM(R) to remove iron from ferri-Exochelin 758SM was also evaluated and compared. Either synthetic desferri-Exochelin 772SM(S) or native desferri-Exochelin 772SM(R) was mixed with ferri-Exochelin 758SM. The amount of iron acquired by the desferri-exochelins after 1 hour was assayed by subjecting the molecule to reverse-phase HPLC on a phenyl column, as described above, and the area under the 450 nm absorbance peak was measured. The amount of iron-exochelin was then calculated using a conversion factor derived from assaying known amounts of ferri-Exochelin 772SM(R) and ferri-Exochelin 772SM(S).

ferri-Exochelin 758SM [2] = experiment: Capacity to remove iron from Ferri-Exochelin 758SM in the same vial (772SM(R) vs 772SM(S)); format: binding; settings: Table 3, 772SM(R), 772SM(S) and 758SM in the same vial
Experimental: To further assess the relative affinities of the stereoisomers desferri-Exochelin 772SM(R) and 772SM(S) for iron, their capacity to remove iron from a different exochelin species in the same vial were compared.
In the experiment,15.6 μg of 1.1% iron-saturated synthetic Exochelin 772SM(R) and 17.4 μg of 1.0% iron-saturated synthetic Exochelin 772SM(S) was mixed with 13.5 μg of 100% iron-saturated native Exochelin 758SM.

[3] = target: T1, 40% iron-saturated human transferrin (Homo sapiens, UniProt P02787); experiment: Capacity to remove iron from 40% iron-saturated human transferrin; format: biochemical; settings: Fe3+:desferri-Exochelin 10:1, PBS pH 7.4
Experimental: (§1) A. 40% Iron-Saturated Human Transferrin. To assess the capacity of the 3 different desferri-Exochelins to remove iron from 40% iron-saturated human transferrin, each of them was incubated for 1, 3, and 24 hours with 40% iron-saturated transferrin such that the ratio of Fe^3+: desferri-Exochelin equaled 10:1. The incubation was carried out in PBS, pH 7.4. Afterwards, the Exochelin and transferrin were separated from each other by centrifugation through a 10,000 dalton cut-off filter. The transferrin (mass 76,000 daltons) was completely excluded by this filter whereas 85% of the Exochelin (mass<1,000) was recovered in the filtrate. To determine the total amount of exochelin recovered, the exochelin in the filtrate was saturated with a 20:1 molar excess of ferric ammonium citrate and subjected to reverse-phase HPLC as described above. To determine the amount of iron-saturated Exochelin in the filtrate at each time point, the filtrate was subjected to reverse-phase HPLC without the addition of iron. The % iron-saturation was calculated as follows: [formula]

[4] = target: holo-transferrin (92% iron-saturated human transferrin) (Homo sapiens, UniProt P02787); experiment: Capacity to remove iron from holo-transferrin (92% iron-saturated human transferrin); format: biochemical; settings: Fe3+:desferri-Exochelin 10:1
Experimental: as §1
B. Holo-Transferrin (92% Iron-Saturated Human Transferrin). To assess the capacity of the 3 different desferri-Exochelins to remove iron from holo-transferrin (92% iron-saturated human transferring, each of them was incubated for 1, 3, and 24 h with 92% iron-saturated transferrin such that the ratio of Fe^3+: desferri-Exochelin equaled 10:1, as in the aforementioned study with 40% iron-saturated transferrin. The % iron-saturation of the Exochelins was assayed as above.

[5] = target: human apotransferrin (<0.7% iron-saturated) (Homo sapiens, UniProt P02787); experiment: Control incubation with human apotransferrin (<0.7% iron-saturated); format: biochemical; settings: apotransferrin 38 mg/ml
Experimental: as §1
C. Apotransferrin (<0.7% Iron-Saturated Human Transferrin). As a control, the three desferri-exochelins were incubated for 3 h and 24 h with human apotransferrin (<0.7% iron-saturated) at a concentration of 38 mg/ml, the same concentration of protein as in the study utilizing 92% iron-saturated transferrin in B above. None of the desferri-exochelins acquired appreciable amounts of iron (Table 6).

[6] = target: T1, 40% iron-saturated human transferrin; experiment: Capacity to remove iron from 40% iron-saturated human transferrin; format: biochemical; settings: Fe3+:desferri-Exochelin 10:1, PBS pH 7.4; remark: listed apart in the source
[7] = assuming comparable affinities for iron, 15.1 µg 772SM(R), Experiment I
[8] = assuming comparable affinities for iron, 15.8 µg 772SM(R), Experiment II
[9] = listed as Native Desferri-Exochelin 772SM(R)
[10] = listed as native desferri-exochelin 772SM(R)

Sequence of holo-transferrin (92% iron-saturated human transferrin) (P02787 20-698): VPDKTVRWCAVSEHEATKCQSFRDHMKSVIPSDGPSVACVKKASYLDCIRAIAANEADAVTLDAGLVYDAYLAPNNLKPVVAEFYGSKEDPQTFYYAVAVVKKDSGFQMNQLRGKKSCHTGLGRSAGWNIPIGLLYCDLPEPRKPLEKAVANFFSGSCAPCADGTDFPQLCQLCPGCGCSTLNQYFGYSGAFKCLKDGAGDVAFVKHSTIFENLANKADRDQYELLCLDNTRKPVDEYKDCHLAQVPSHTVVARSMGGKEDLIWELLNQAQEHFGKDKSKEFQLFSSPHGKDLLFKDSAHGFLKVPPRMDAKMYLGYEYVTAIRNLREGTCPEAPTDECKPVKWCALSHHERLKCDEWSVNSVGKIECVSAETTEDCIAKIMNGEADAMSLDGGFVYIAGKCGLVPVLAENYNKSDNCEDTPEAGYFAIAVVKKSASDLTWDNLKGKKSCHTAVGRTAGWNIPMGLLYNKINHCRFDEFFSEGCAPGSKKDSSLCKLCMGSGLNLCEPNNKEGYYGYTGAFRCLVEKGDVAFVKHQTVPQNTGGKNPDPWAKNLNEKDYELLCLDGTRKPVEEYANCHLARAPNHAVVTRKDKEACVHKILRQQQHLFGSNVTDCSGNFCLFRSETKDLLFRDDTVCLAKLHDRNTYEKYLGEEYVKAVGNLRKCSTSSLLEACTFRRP
T1 sequence (P02787 20-698): as above
Sequence of human apotransferrin (<0.7% iron-saturated) (P02787 20-698): as above

Substance: Exochelin 758SM [Native 758SM, reference compound]
% Iron-Saturation 0 h (ferri-Exochelin 758SM [1]): 100% | % Iron-Saturation 0 hour (ferri-Exochelin 758SM [1]; Table 2, 0 hour): 100% | % Iron-Saturation 1 hour (ferri-Exochelin 758SM [1]; Table 2, with native desferri-Exochelin 772SM(R)): 61.7% | % Iron-Saturation 1 hour (ferri-Exochelin 758SM [1]; Table 2, with synthetic desferri-Exochelin 772SM(R)): 55.9% | % Iron-Saturation 1 hour (ferri-Exochelin 758SM [1]; Table 2, with synthetic desferri-Exochelin 772SM(S)): 54.1% | % Iron-Saturation 0 hour (ferri-Exochelin 758SM [2]; 0 hour): 100% | % Iron-Saturation 1 hour (ferri-Exochelin 758SM [2]; 1 hour): 40.0%

Iron-Saturation 1 h ([3]; 1 h): 9.3% | Iron-Saturation 3 h ([3]; 3 h): 13.8% | Iron-Saturation 24 h [3, 9]: 34.0% | Iron-Saturation 24 h [3, 10]: 34.0% | Iron-Saturation 0 h ([4]; 0 h): 2.8% | Iron-Saturation 1 h ([4]; 1 h): 11.6% | Iron-Saturation 3 h ([4]; 3 h): 19.0% | Iron-Saturation 24 h [4, 9]: 54.1% | Iron-Saturation 24 h [4, 10]: 54.1% | Iron-Saturation 0 h ([5]; 0 h): 2.8% | Iron-Saturation 3 h ([5]; 3 h): 9.3% | Iron-Saturation 24 h ([5]; 24 h): 6.8% | Iron-Saturation 0 h [6]: 2.8%
Substance: Exochelin 772SM(R) [Native 772SM(R), reference compound]
% of Calculated Iron-Saturation at Equilibrium 0 h (ferri-Exochelin 758SM [1]; [7]): 6.8% | % of Calculated Iron-Saturation at Equilibrium 0 h (ferri-Exochelin 758SM [1]; [8]): 5.0% | % Iron-Saturation 0 h (ferri-Exochelin 758SM [1]): 2.8% | % of Calculated Iron-Saturation at Equilibrium 1 h (ferri-Exochelin 758SM [1]; [7]): 85.8% | % of Calculated Iron-Saturation at Equilibrium 1 h (ferri-Exochelin 758SM [1]; [8]): 81.6% | % of Calculated Iron-Saturation at Equilibrium 1 h (ferri-Exochelin 758SM [1]; assuming comparable affinities for iron, listed as native Exochelin 772SM(R)): 85.8% and 81.6% | % Iron-Saturation 1 h (ferri-Exochelin 758SM [1]; 15.1 µg 772SM(R), Experiment I): 46.4% | % Iron-Saturation 1 h (ferri-Exochelin 758SM [1]; 15.8 µg 772SM(R), Experiment II): 45.6% | % Iron-Saturation 1 h (ferri-Exochelin 758SM [1]; listed as native Exochelin 772SM(R)): 46.4% and 45.6% | % of Calculated Iron-Saturation at Equilibrium 0 hour (ferri-Exochelin 758SM [1]; Table 2, 0 hour, assuming comparable affinities for iron): 5.4% | % Iron-Saturation 0 hour (ferri-Exochelin 758SM [1]; Table 2, 0 hour): 2.8% | % of Calculated Iron-Saturation at Equilibrium 1 hour (ferri-Exochelin 758SM [1]; Table 2, assuming comparable affinities for iron): 88.7% | % of Calculated Iron-Saturation at Equilibrium 1 hour (ferri-Exochelin 758SM [1]; Table 2, assuming comparable affinities for iron, listed as native Exochelin 772SM(R)): 88.7% | % Iron-Saturation 1 hour (ferri-Exochelin 758SM [1]; Table 2): 46.2%
